Results on two compounds are retold here after patent US20080254497A1, “Response Predictors for Erbb Pathway-Specific Drugs” (MONOGRAM BIOSCIENCES, INC., priority 2004, published 2008).

Data set [1] concerns human cell lines (head and neck, breast, and gastric). As to conditions: cited from earlier work.
Data set [2] relates to activation of EGFR, erbB2, Erk1/2, and Akt. The settings on record: treatment of tumor xenografts; cited from earlier work.
Another data set concerns the target T1, Her2-Her3 heterodimers (Homo sapiens, UniProt P21860).
T1 construct: endogenous in cells; host or cells: MCF-7
Description: Releasable molecular tag assay of cell lysates for Her2-Her3 heterodimers. Type of data set: cell-based. As to conditions: MCF-7 cells, increasing ligand concentrations, 10 minutes at 37° C., FIG. 4C. How it is done:
Measurements are made using three binding compounds and a cleaving probe as described below.
7.3.1 Sample Preparation: • 1. Serum-starve breast cancer cell line culture overnight before use. • 2. […] Aspirate culture media, transfer onto ice, and add lysis buffer to lyse cells in situ. • 4. Scrape and transfer lysate to microfuge tube. Incubate on ice for 30 min. Microfuge at 14,000 rpm, 4° C., for 10 min. (Centrifugation is optional.) • 5. Collect supernatants as lysates and aliquot for storage at −80° C. until use.
Assay design: As illustrated diagrammatically in FIG. 4A, Her2-Her3 heterodimers (900) are quantified ratiometrically based on the binding of cleaving probe (902) and binding compounds (904), (906), and (908). A photosensitizer indicated by “PS” is attached to cleaving probe (902) via an avidin-biotin linkage, and binding compounds (904), (906), and (908) are labeled with molecular tags Pro14, Pro10, and Pro11, respectively. Binding compound (904) is specific for a phosphorylation site on Her3.
The total assay volume is 40 ul. The lysate volume is adjusted to 30 ul with lysis buffer. […]
7.3.3 Data Analysis: • 1. Normalize relative fluorescence units (RFU) signal of each molecular tag against CE reference standard A315 (a fluorescein-derivatized deoxyadenosine monophosphate that has known peak position relative to molecular tags from the assay upon electrophoretic separation). • 2. […]

Data set [3] deals with Her receptor phosphorylation. Description: Fixed cell pellet sections, receptor phosphorylation. The data set is classed as cell-based, human. As to conditions: 100 nM vs non-stimulated. How it is done: In this example, model fixed tissues made from pelleted cell lines were assayed for the presence of Her receptor dimers. The assay design for heterodimers was essentially the same as that described in FIG. 4A, with exceptions as noted below. That is, four components are employed: (i) a cleaving probe comprising a biotinylated monoclonal antibody conjugated to a cleavage-inducing moiety (in this example, a photosensitizer-derivatized streptavidin, as illustrated in FIG. 3E) and specific for one of the receptors of the dimer, (ii) a monoclonal antibody derivatized with a first molecular tag and specific for the same receptor as the cleaving probe, (iii) a monoclonal antibody derivatized with a second molecular tag and specific for the receptor opposite to that the cleaving probe is specific for, and (iv) a monoclonal antibody derivatized with a third molecular tag and specific for an intracellular phosphorylated tyrosine. The assay design for homodimers was essentially the same as that described in FIG. 1D, with exceptions as noted below.
In each case, model fixed tissues were prepared as follows: cells grown on tissue culture plates were stimulated with either EGF or HRG as described in the prior examples, after which they were washed and removed by scrapping. […]

The next data set deals with Her1 phosphorylation. Description: Releasable molecular tag assay of cell lysates for Her1 phosphorylation. Type of data set: cell-based, human. The settings on record: BT-20 cells, increasing ligand concentration, FIG. 6B. How it is done: Sample preparation was carried out essentially as described in Example 2.
Assay design: A monoclonal antibody specific to the receptor is separately conjugated with either a molecular tag or biotin (that is then linked to a photosensitizer via an avidin bridge), so that the cleaving probe and a binding compound compete to bind to the same epitope in this example. Another binding compound is used that consists of a second antibody recognizing an overlapping epitope on the receptor, so that a ratiometric signal can be generated as a measure of homodimerization. The signal derived from the second antibody also provides a measure of the total amount of receptor in a sample. The total amount of receptor is determined in a separate assay well. Receptor phosphorylation can be quantified together with either homodimerization or total receptor amount.
The assay volume is 40 ul and the general procedure is similar to that of Example 2. Two assay wells, A and B, are set up for each sample to quantify homodimerization and total amount of receptor separately.
• Pro10_anti-Her-1: 0.05-0.1 ug/ml • Pro2_anti-phospho-Tyr: 0.1 ug/ml • Biotin_anti-Her-1: 1-2 ug/ml
7.5.2 Data Analysis: • 1. Normalize RFU signal of each molecular tag against CE reference standard A315. • 2. Subtract RFU of “no lysate” background control from corresponding molecular tag signals. • 3. […]

As to `CS(=O)(=O)CCNCc1ccc(-c2ccc3ncnc(Nc4ccc(OCc5cccc(F)c5)c(Cl)c4)c3c2)o1` [GW572016], the “IC90, growth inhibition of human cell lines” value in data set [1] (head and neck, breast, and gastric cell lines in vitro) is < 1.313 µg/mL. For the same compound, the “outgrowth following cessation of treatment” value in data set [1] (up to 18 days following cessation of treatment) is “no outgrowth observed”. Further, the “activation of EGFR, erbB2, Erk1/2, and Akt in tumor xenografts” value in data set [2] was “inhibition”.
“EGF: epidermal growth factor, peptide that binds to the cell-surface EGFR; used to stimulate cell lines”: the “quantity of Her2-Her3 heterodimers” value in the data set with Her2-Her3 heterodimers is “essentially no change”. Further, the Her receptor phosphorylation entry in data set [3] (fixed pellets of 22Rv1 cells, FIG. 15D) was “up-regulation”. In addition, in data set [3] (fixed pellets of MDA-MB-468 cells, FIG. 15A), the intracellular phosphorylation result is reported as “increases”. Besides, in the data set on Her1 phosphorylation, the “quantity of Her1 phosphorylation” value was “increases”.
